In patent publication US9341619B2, “Hyposialylation disorders” (THE UNITED STATES OF AMERICA, as representated by the …, priority 2013, dated 2016):

Test system: sialylation of core 1 O-linked glycans of plasma glycoproteins (T/ST ratio)
Assay: Plasma T/ST ratio (T-antigen to monosialylated ST-antigen) by LC-MS/MS in treated GNE myopathy patients
Format: in vivo, human
Protocol: The quantification of the T/ST ratio was carried out using the O-glycan quantification methods disclosed in Liu et al. Mol Genet Metab 106, 442-454 (2012). Briefly, O-linked glycans from human serum or plasma total glycoproteins were released by sodium hydroxide with sodium borohydrate and desalted by ion-exchange column and then permethylated before the quantity of T-antigen and monosialyl ST-antigen was measured using LC-MS/MS method. Plasma samples from 40 normal controls were used to establish the normal range for the T/ST ratio at <0.056. A cut-off of 0.06 was used to diagnose hyposialylation of O-linked protein glycosylation in human plasma or serum.
O-glycans were released from plasma glycoproteins and prepared for analysis essentially as described by Carlson (J Biol Chem 243: 616-626, 1968; Liu et al. Mol Genet Metab 106, 442-454 (2012)), with modifications as described. An internal standard (1250 pmol raffinose in 5 μL) was added to 10 μL of plasma and 65 μl water for a final volume of 100 μL. Next, 100 μL of freshly prepared 2M […] in 0.1M sodium hydroxide was added to denature the serum proteins and release the O-glycans; the mixture was incubated at 45° C. for 16 hours to ensure complete reaction. The reaction was neutralized by drop wise addition of 1.6 mL of a 0.25M acetic acid-methanol solution, and the O-glycans were extracted in methanol. […]

Row | Structure (SMILES) | T/ST ratio after sialic acid treatment (one GNE myopathy patient (NH00016), sialic acid received one month before the test, cut-off 0.06) | T/ST ratio range under ManNAc (one GNE myopathy patient (SIA79) self-administering off-label ManNAc, abnormal range 0.06 or higher)
1 | CC(=O)N[C@@H]1C(O)C[C@](O)(C(=O)O)OC1[C@H](O)[C@H](O)CO (stereo in doubt) [sialic acid, N-acetylneuraminic acid] | 0.05 | 
2 | CC(=O)N[C@H]1[C@@H](O)[C@H](O)[C@@H](CO)O[C@H]1O [ManNAc, N-acetyl-D-mannosamine] |  | normal range
